This is an account of results in patent publication US7795300B2, “External preparation for skin” (Kuraray Co., Ltd., priority 2003, dated 2010).

The subject of one series is Normal human melanocytes. Nature of the series: Inhibitory action on elongation of dendrites. Type of series: cell-based. The method, then: According to the following method, inhibitory action on elongation of dendrites was examined using human melanocytes.
(Cell) Normal human melanocytes
(Medium) Basic medium (Medium 154S) to which the following reagents were added
(Reagent) Growth additive: bovine pituitary extract (BPE) (final concentration in the medium: 0.4% v/v), fetus bovine serum (FBS) (final concentration in the medium: 0.5% v/v), human recombinant basic fibroblast growth factor (rFGF-B) (final concentration in the medium: 3 ng/ml), hydrocortisone (final concentration in the medium: 0.18 μg/ml), insulin (final concentration in the medium: 5 μg/ml), transferrin (final concentration in the medium: 5 μg/ml), phorbol 12-myristate 13-acetate (PMA) (final concentration in the medium: 10 ng/ml), heparin (final concentration in the medium: 3 μg/ml), PSA solution (mixed solution at a concentration of penicillin: 50,000 Unit/ml, a concentration of streptomycin: 50 μg/ml, and a concentration of amphotericin B: 12.5 μg/ml. Added 1 ml thereof for 500 ml of the medium.) (Test Method)
Normal human melanocytes were seeded (3,000 cells/well) into a 48-well microplate into which the above medium (198 μl/well) was poured, and cultured at 37° C. After 24 hours, Compound 1 (centaureidin) produced in Production Example 6 was dissolved in dimethyl sulfoxide (DMSO) at final concentrations in the medium of 0 mM (control), 0.1 mM, 0.5 mM, and 1 mM, to obtain sample solutions. To 1 μl of each of those sample solutions, 9 μl of the medium were added. 2 μl of each solution were added into each well of the microplate and culture was continued. After 24 hours from addition of the samples, the length of dendrites was observed.
In the same manner as in Test Example 1, but using extracts produced in Production Examples 1 to 5, sample solutions were prepared so that the final concentration of Compound 1 (centaureidin) in the medium was 0.5 mM, to thereby examine inhibitory action on elongation of dendrites.
In the same manner as in Test Example 1, Compounds 2 to 4 were further examined for inhibitory action on elongation of dendrites under the condition that the final concentration in the medium was 0.5 mM.

A further series deals with melanoma B-16 cells. Format: cell-based. The settings on record: 48 hours. The method, then:
The effect of the combination of a compound (A) and 4-n-butyl resorcinol was studied using melanoma B-16 cells (obtained from Tomita Laboratory at Tohoku University, School of Medicine). MEM (modified Eagle's medium) supplemented with 15% FBS (fetal bovine serum) to which Compound 1 (centaureidin) and 4-butyl resorcinol at various concentrations were added was placed in each well of a microtiter plate. Melanoma B-16 cells were seeded into each well at a dose of 5×10^5 cells/ml and cultured for 48 hours. The cells were collected by means of centrifugal separation and washed twice with the medium, and then the color and number of the cells were judged using scores. Cells cultured without addition of both Compound 1 and 4-n-butyl resorcinol were used as a control, and judgment was carried out based on the following criteria: the color, score 0: the same as the control, score 1: slightly paler than the control, score 2: apparently paler than the control, score 3: cells were almost white, score 4: cells were white; the number of cells, score 0: almost all the cells were dead, score 1: nine-tenth of the cells were dead, score 2: about half the cells were dead, score 3: a few cells were dead, score 4: the number of cells was equal to that of the control. […] Such action is in good accordance with inhibitory action of Compound 1 on dendrites of melanocytes.

The mark [1] stands for this setting: Compounds 2 to 4, final concentration in the medium 0.5 mM, 24 hours.
The mark [2] stands for this setting: centaureidin 0 mM, 4-n-butyl resorcinol 0.01 % by mass.
The mark [3] stands for this setting: centaureidin 0 mM, 4-n-butyl resorcinol 0.1 % by mass.
[4] abbreviates: centaureidin 0 mM, 4-n-butyl resorcinol 0.5 % by mass.
Where [5] appears, read: normal human melanocytes, 24 hours.
Where [6] appears, read: centaureidin 0.1 mM, 4-n-butyl resorcinol 0 % by mass.
Setting [7] is: centaureidin 0.5 mM, 4-n-butyl resorcinol 0 % by mass.

Read-outs that look alike come from different tables or passages of the source. A value given as a limit tells only on which side of the number the result lay.

Take `CCOc1cc(-c2oc3cc(OC)c(OC)c(OCC)c3c(=O)c2OCC)ccc1OC` [Compound 3, 3,5-diethoxy-6,7-dimethoxy-2-(5-ethoxy-4-methoxyphenyl)-4H-1-benzopyran-4-one]: in the series on Normal human melanocytes (setting [1]), the Length of dendrite turned out to be 47 ± 28 μm.
The same measure, in the same setting: with `COc1cc(OC)c(-c2oc3cc(OC)c(O)c(O)c3c(=O)c2OC)cc1O` [Compound 4, 5,6-dihydroxy-3,7-dimethoxy-2-(5-hydroxy-2,4-dimethoxyphenyl)-4H-1-benzopyran-4-one] the figure was 31 ± 22 μm.
With `CCCCc1ccc(O)cc1O` [4-n-butyl resorcinol], the values for the Color of cells result with melanoma B-16 cells (setting [2]), with melanoma B-16 cells (setting [3]) and in the series on melanoma B-16 cells (setting [4]) were “score 1”, “score 3” and “score 4”, respectively. Besides, the Number of cells result in the series with melanoma B-16 cells (setting [2]) was “score 3”; in the series with melanoma B-16 cells (setting [3]), “score 2”; in the series on melanoma B-16 cells (setting [4]), “score 1”.
Regarding `COc1ccc(-c2oc3cc(O)c(OC)c(O)c3c(=O)c2OC)cc1O` [Compound 1, 5,7-dihydroxy-3,6-dimethoxy-2-(5-hydroxy-4-methoxyphenyl)-4H-1-benzopyran-4-one], the Length of dendrite in the series on Normal human melanocytes (centaureidin 0.1 mM final concentration in medium, 24 hours after addition, control (0 mM) 140 ± 29) came out at 101 ± 15 μm; with Normal human melanocytes (centaureidin 0.5 mM final concentration in medium, 24 hours after addition, control (0 mM) 140 ± 29) it was 26 ± 8 μm; in the series on Normal human melanocytes (centaureidin 1 mM final concentration in medium, 24 hours after addition, control (0 mM) 140 ± 29), 24 ± 6 μm. The “Concentration at which inhibitory action on elongation of dendrites can be confirmed” value in the series on Normal human melanocytes (setting [5]) is “at least 0.1 mM”. Besides, in the series with Normal human melanocytes (setting [5]), the “Concentration at which inhibitory action on elongation of dendrites is particularly remarkable” value was not below 0.5 mM. Moreover, in the series on Normal human melanocytes (normal human melanocytes, 24 hours after addition), the “Inhibitory action on elongation of dendrites (in words)” value was “elongation of dendrites is inhibited”. Besides, the Color of cells entry in the series with melanoma B-16 cells (setting [6]) and in the series with melanoma B-16 cells (setting [7]) was “score 1” each time. Also, the Number of cells result with melanoma B-16 cells (setting [6]) and in the series on melanoma B-16 cells (setting [7]) was “score 3” each time. In the series with melanoma B-16 cells (melanoma B-16 cells cultured with 4-n-butyl resorcinol), the “Effect on cell death (in words)” value is reported as “inhibits cell death”.
For `COc1c(O)c(OC)c2oc(-c3cc(O)c(O)c(O)c3)c(OC)c(=O)c2c1O` [Compound 2, 5,7-dihydroxy-3,6,8-trimethoxy-2-(3,4,5-trihydroxyphenyl)-4H-1-benzopyran-4-one], in the series with Normal human melanocytes (setting [1]), the Length of dendrite worked out at 34 ± 19 μm.
